Drawing on US11180474B2 (BRISTOL-MYERS SQUIBB COMPANY, priority 2016, dated 2021), this text covers IC50 for 16 molecules.

One experiment addresses T1, human TLR7 (Homo sapiens, UniProt Q9NYK1).
T1 construct: host or cells: HEK-Blue cells
T1 sequence (Q9NYK1 27-1049): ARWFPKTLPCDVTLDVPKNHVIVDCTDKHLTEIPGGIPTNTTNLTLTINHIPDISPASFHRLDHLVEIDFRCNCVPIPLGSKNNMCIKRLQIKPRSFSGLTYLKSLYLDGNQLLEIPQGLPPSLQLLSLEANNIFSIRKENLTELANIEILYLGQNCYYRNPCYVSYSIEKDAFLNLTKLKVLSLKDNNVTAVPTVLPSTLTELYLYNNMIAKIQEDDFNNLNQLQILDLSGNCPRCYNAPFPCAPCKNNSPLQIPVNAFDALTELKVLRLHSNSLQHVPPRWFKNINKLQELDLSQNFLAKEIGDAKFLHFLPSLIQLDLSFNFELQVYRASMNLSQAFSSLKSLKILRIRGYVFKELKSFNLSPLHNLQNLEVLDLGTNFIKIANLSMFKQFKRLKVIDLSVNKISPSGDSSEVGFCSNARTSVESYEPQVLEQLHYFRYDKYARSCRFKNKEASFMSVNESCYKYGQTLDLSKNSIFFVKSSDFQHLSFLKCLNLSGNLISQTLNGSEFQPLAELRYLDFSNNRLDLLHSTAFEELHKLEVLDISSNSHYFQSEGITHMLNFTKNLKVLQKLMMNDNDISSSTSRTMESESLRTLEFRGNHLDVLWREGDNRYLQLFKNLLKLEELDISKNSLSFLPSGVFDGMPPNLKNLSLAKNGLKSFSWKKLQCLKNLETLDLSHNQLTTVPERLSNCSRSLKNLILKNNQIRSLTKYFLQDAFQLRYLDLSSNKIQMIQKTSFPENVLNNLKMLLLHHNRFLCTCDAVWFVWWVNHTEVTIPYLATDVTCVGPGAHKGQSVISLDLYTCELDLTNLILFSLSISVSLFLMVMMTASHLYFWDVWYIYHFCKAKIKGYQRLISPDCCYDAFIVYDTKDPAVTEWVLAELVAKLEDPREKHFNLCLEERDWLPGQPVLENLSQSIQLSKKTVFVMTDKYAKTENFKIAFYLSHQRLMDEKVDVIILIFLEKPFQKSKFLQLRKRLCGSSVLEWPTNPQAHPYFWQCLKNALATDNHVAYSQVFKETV
Kind of experiment: TLR7 inhibition reporter assay (HEK-Blue cells, SEAP reporter, gardiquimod stimulation). In kind it is cell-based. Particulars: HEK-Blue cells overexpressing human TLR7, gardiquimod 7.5 μM. Here is the method: (§1) TLR7/8/9 Inhibition Reporter Assays
Briefly, cells are seeded into Greiner 384 well plates (15000 cells per well for TLR7, 20,000 for TLR8 and 25,000 for TLR9) and then treated with test compounds in DMSO to yield a final dose response concentration range of 0.05 nM-50 μM. […] After a 22 hour incubation at 37° C., 5% CO2, SEAP levels are determined with the addition of HEK-Blue™ Detection reagent (Invivogen), a cell culture medium that allows for detection of SEAP, according to manufacturer's specifications. The percent inhibition is determined as the % reduction in the HEK-Blue signal present in wells treated with agonist plus DMSO alone compared to wells treated with a known inhibitor.
In general terms: Reporter assays use an easily measured gene product as a stand-in for the process of interest.

The target in the next experiment is T2, human TLR9 (Homo sapiens, UniProt Q9NR96).
T2 construct: host or cells: HEK-Blue cells
T2 sequence (Q9NR96 26-1032): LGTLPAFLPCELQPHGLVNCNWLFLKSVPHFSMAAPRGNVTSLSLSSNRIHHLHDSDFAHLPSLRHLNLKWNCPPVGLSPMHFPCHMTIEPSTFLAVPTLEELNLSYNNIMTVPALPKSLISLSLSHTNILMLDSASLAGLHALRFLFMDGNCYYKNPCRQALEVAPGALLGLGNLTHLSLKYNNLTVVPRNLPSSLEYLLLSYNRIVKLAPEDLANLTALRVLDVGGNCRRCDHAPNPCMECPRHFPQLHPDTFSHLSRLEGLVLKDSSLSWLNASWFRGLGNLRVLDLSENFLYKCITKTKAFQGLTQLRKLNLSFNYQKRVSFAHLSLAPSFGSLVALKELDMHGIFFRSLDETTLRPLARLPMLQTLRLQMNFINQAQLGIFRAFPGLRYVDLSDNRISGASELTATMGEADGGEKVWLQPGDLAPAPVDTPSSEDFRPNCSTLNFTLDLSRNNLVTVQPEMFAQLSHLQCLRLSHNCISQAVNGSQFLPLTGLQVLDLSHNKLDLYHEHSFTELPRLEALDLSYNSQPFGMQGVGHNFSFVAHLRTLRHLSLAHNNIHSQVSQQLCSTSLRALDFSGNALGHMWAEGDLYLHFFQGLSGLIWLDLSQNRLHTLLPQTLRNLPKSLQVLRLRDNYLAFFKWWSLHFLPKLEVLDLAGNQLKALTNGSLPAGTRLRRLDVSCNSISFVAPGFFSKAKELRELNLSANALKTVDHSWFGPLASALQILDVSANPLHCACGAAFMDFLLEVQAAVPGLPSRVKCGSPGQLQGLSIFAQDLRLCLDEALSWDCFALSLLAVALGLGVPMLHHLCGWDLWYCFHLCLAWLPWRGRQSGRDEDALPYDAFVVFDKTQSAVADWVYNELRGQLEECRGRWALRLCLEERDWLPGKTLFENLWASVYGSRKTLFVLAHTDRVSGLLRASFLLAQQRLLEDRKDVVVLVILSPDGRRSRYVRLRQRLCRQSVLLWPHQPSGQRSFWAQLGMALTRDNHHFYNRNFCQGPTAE
Kind of experiment: TLR9 inhibition reporter assay (HEK-Blue cells, SEAP reporter, ODN2006 stimulation). In kind it is cell-based. Particulars: HEK-Blue cells overexpressing human TLR9, ODN2006 5 nM. As for the experimental part:
as §1
HEK-Blue™-cells (Invivogen) overexpressing human TLR7, TLR8 or TLR9 receptors were used for screening inhibitors of these receptors using an inducible SEAP (secreted embryonic alkaline phosphatase) reporter gene under the control of the IFN-β minimal promoter fused to five NF-κB and AP-1-binding sites. Briefly, cells are seeded into Greiner 384 well plates (15000 cells per well for TLR7, 20,000 for TLR8 and 25,000 for TLR9) and then treated with test compounds in DMSO to yield a final dose response concentration range of 0.05 nM-50 μM. After a 30 minute compound pre-treatment at room temperature, the cells are then stimulated with a TLR7 ligand (gardiquimod at a final concentration of 7.5 μM), TLR8 ligand (R848 at a final concentration of 15.9 μM) or TLR9 ligand (ODN2006 at a final concentration of 5 nM) to activate NF-κB and AP-1 which induce the production of SEAP. After a 22 hour incubation at 37° C., 5% CO2, SEAP levels are determined with the addition of HEK-Blue™ Detection reagent (Invivogen), a cell culture medium that allows for detection of SEAP, according to manufacturer's specifications. The percent inhibition is determined as the % reduction in the HEK-Blue signal present in wells treated with agonist plus DMSO alone compared to wells treated with a known inhibitor.

Each structure is given as a SMILES string.

Take `COc1ccc(-c2[nH]c3ccc(C4CCN(C(=O)CN(C)C)CC4)cc3c2C2CCOCC2)cc1OC` [Example 393, 1-(4-(2-(3,4-dimethoxyphenyl)-3-(tetrahydro-2H-pyran-4-yl)-1H-indol-5-yl)piperidin-1-yl)-2-(dimethylamino)ethan-1-one]: the 50% inhibitory concentration (IC50) (as a rule, the midpoint of a concentration-inhibition curve) is 248 nM against human TLR7 and 4850 nM against human TLR9.
As for `COc1ccc(-c2[nH]c3ccc(C4CCN(C(=O)CNCC(F)(F)F)CC4)cc3c2C(C)C)cc1OC` [Example 221, 1-(4-(2-(3,4-dimethoxyphenyl)-3-isopropyl-1H-indol-5-yl)piperidin-1-yl)-2-((2,2,2-trifluoroethyl)amino)ethan-1-one], the IC50 against human TLR7 was 162 nM; at human TLR9, not below 50000 nM.
`CCC(CC)CN1CCC(c2ccc3[nH]c(-c4ccc(OC)c(OC)c4)c(C(C)C)c3c2)CC1` [Example 265, 2-(3,4-dimethoxyphenyl)-5-(1-(2-ethylbutyl)piperidin-4-yl)-3-isopropyl-1H-indole]: the IC50 at human TLR7 was 180 nM; against human TLR9 it was not below 50000 nM.
Taken in the same sequence, the figures for `CCOC(=O)C1CC1CN1CCC(N2CCC(c3ccc4[nH]c(-c5ccc(OC)c(OC)c5)c(C)c4c3)CC2)CC1` (centres unmarked) [Example 60, ethyl 2-((4-(2-(3,4-dimethoxyphenyl)-3-methyl-1H-indol-5-yl)-[1,4′-bipiperidin]-1′-yl)methyl)cyclopropane-1-carboxylate] were 270 nM and 111 nM.
For the molecule `CNCCN1CCC(c2ccc3[nH]c(-c4ccc(OC)c(OC)c4)c(CC4CC4)c3c2)CC1` [Example 117, 2-(4-(3-(cyclopropylmethyl)-2-(3,4-dimethoxyphenyl)-1H-indol-5-yl)piperidin-1-yl)-N-methylethanamine di-trifluoroacetic acid], the half-maximal inhibitory concentration (IC50) against human TLR7 came out at 1340 nM; at human TLR9, 882 nM.
For `COc1ccc(-c2[nH]c3ccc(C4CCN(Cc5cncn5C)CC4)cc3c2C)cc1OC` [Example 40, 2-(3,4-dimethoxyphenyl)-3-methyl-5-(1-((1-methyl-1H-imidazol-5-yl)methyl)piperidin-4-yl)-1H-indole], the IC50 came out at 512 nM against human TLR7 and 2010 nM on human TLR9.
Taken in the same sequence, the figures for `COc1ccc(-c2[nH]c3ccc(C4CCN(Cc5ccc(N6CCN(C)CC6)cc5)CC4)cc3c2C)cc1OC` [Example 42, 2-(3,4-dimethoxyphenyl)-3-methyl-5-(1-(4-(4-methylpiperazin-1-yl)benzyl)piperidin-4-yl)-1H-indole] were 687 nM and 120 nM.
Taken in the same sequence, the figures for `COc1ccc(-c2[nH]c3ccc(C4CCN(Cc5cnc(C)[nH]5)CC4)cc3c2C)cc1OC` [Example 4, 2-(3,4-dimethoxyphenyl)-3-methyl-5-(1-((2-methyl-1H-imidazol-5-yl)methyl)piperidin-4-yl)-1H-indole] were 3770 nM and 190 nM.
In the case of `COc1ccc(-c2[nH]c3ccc(C4CCN(Cc5cccc(C#N)c5)CC4)cc3c2C(C)C)cc1OC` [Example 264, 3-((4-(2-(3,4-dimethoxyphenyl)-3-isopropyl-1H-indol-5-yl)piperidin-1-yl)methyl)benzonitrile], the IC50 turned out to be 364 nM against human TLR7 and 5090 nM against human TLR9.
As for `CCC(C)CN1CCC(N2CCC(c3ccc4[nH]c(-c5ccc(OC)c(OC)c5)c(C)c4c3)CC2)CC1` (centres unmarked) [Example 51, 2-(3,4-dimethoxyphenyl)-3-methyl-5-(1′-(2-methylbutyl)-[1,4′-bipiperidin]-4-yl)-1H-indole], the IC50 at human TLR7 was 240 nM; at human TLR9, 89 nM.
Regarding `COc1ccc(-c2[nH]c3ccc(C4CCN(Cc5cccc6ncccc56)CC4)cc3c2C)cc1OC` [Example 15, 5-((4-(2-(3,4-dimethoxyphenyl)-3-methyl-1H-indol-5-yl)piperidin-1-yl)methyl)quinoline], the IC50 against human TLR7 is 8300 nM; against human TLR9, 602 nM.
Taken in the same sequence, the figures for `COc1ccc(-c2[nH]c3ccc(C4CCN(CC5CCOCC5)CC4)cc3c2C)cc1OC` [Example 17, 2-(3,4-dimethoxyphenyl)-3-methyl-5-(1-((tetrahydro-2H-pyran-4-yl)methyl)piperidin-4-yl)-1H-indole] were 368 nM and 729 nM.
In the same order, the values of `CCc1c(-c2ccc(OC)c(OC)c2)[nH]c2ccc(C3CCN(C(=O)CNC4(CO)CCCC4)CC3)cc12` [Example 160, 1-(4-(2-(3,4-dimethoxyphenyl)-3-ethyl-1H-indol-5-yl)piperidin-1-yl)-2-((1-(hydroxymethyl)cyclopentyl)amino)ethan-1-one] are 118 nM and 1900 nM.
In the same order, the values of `COc1ccc(-c2[nH]c3ccc(C4CCN(Cc5ccc6cnccc6c5)CC4)cc3c2C)cc1OC` [Example 31, 6-((4-(2-(3,4-dimethoxyphenyl)-3-methyl-1H-indol-5-yl)piperidin-1-yl)methyl)isoquinoline] are 347 nM and 225 nM.
In the case of `COc1ccc(-c2[nH]c3ccc(C4CCN(CCNC(=O)OC(C)(C)C)CC4)cc3c2C)cc1OC` [Example 99, tert-butyl (2-(4-(2-(3,4-dimethoxyphenyl)-3-methyl-1H-indol-5-yl)piperidin-1-yl)ethyl)carbamate], the IC50 on human TLR7 is 938 nM; against human TLR9, 1020 nM.
Taken in the same sequence, the figures for `COc1ccc(-c2[nH]c3ccc(C4CCN(Cc5ccc(N(C)C)cc5)CC4)cc3c2C)cc1OC` [Example 37, 4-((4-(2-(3,4-dimethoxyphenyl)-3-methyl-1H-indol-5-yl)piperidin-1-yl)methyl)-N,N-dimethylaniline] were 1050 nM and 637 nM.
